Data set [1] in a line: Ratio of plasma concentration in corn oil-treated C57BL/6J mouse at 30 mg/kg, ip to IC50 for mouse MGAT2. The conditions noted are these: in vivo. The class given is ADME, organism-based.
Data set [2] concerns Mus musculus. Nature of the data set: Anorectic effect in fasting high fat diet fed C57BL/6J mouse assessed as reduction in food intake at 30 mg/kg, po for 37 days followed by high fat diet feeding for 2 hrs relative to control. The class given is functional. Set-up: scale not given: the % may be the effect or the level left.
Data set [3] relates to Mus musculus. Nature of the data set: Inhibition of corn oil-induced plasma chylomicron triacylglycerol excursion in C57BL/6J mouse at 30 mg/kg, ip treated 16 hrs prior to liquid meal challenge measured up to 4 hrs by oral meal tolerance test relative to control. It counts as functional.
The test system of data set [4] is Mus musculus. Nature of the data set: Inhibition of plasma triacylglycerol excursion in mouse at 10 mg/kg relative to control. It counts as functional.
Data set [5] has as its system Mus musculus. Nature of the data set: Inhibition of plasma triacylglycerol excursion in mouse at 30 mg/kg relative to control. The class given is functional.
For data set [6], the system named is Mus musculus. Description: Decrease in insulin level in high sucrose, very low fat diet fed mouse model of fatty liver at 30 mg/kg relative to control. Set-up: scale not given: the % may be the effect or the level left. The class given is functional.
The subject of data set [7] is Mus musculus. Nature of the data set: Decrease in insulin level in high sucrose, very low fat diet fed mouse model of fatty liver at 100 mg/kg relative to control. It counts as functional. Set-up: scale not given: the % may be the effect or the level left.
The species named for a further data set is Homo sapiens. Description: Selectivity ratio of IC50 for human MGAT3 to IC50 for human MGAT2.
Data set [8] concerns the target T1, Diacylglycerol O-acyltransferase 2 (Homo sapiens, UniProt Q96PD7).
T1 sequence (Q96PD7 whole entry): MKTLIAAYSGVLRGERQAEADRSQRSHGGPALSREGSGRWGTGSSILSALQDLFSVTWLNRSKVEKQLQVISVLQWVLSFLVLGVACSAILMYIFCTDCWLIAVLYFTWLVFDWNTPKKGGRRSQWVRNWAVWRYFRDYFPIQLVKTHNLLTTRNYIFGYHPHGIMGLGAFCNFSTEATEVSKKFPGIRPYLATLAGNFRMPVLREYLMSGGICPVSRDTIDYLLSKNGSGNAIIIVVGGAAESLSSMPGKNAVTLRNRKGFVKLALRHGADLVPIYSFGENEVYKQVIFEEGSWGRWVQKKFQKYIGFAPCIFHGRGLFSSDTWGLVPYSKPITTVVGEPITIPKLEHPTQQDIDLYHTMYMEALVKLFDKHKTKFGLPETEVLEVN
Description: Inhibition of recombinant human DGAT2.

The subject of data set [9] is Mus musculus. Nature of the data set: Inhibition of corn oil-induced plasma triacylglycerol excursion in C57BL/6J mouse at 30 mg/kg administered via oral gavage 30 mins prior to corn oil challenge measured after 6 hrs by oral lipid tolerance test relative to control. It counts as functional.
Data set [10] can be described thus: Oral bioavailability in mouse. It counts as ADME, organism-based. The conditions noted are these: in vivo.
Data set [11] is described as follows: Oral bioavailability in rat. The class given is ADME, organism-based. The conditions noted are these: in vivo.

The term inhibition in vivo denotes the relative decrease from the control value, in per cent. The IC50 is the concentration that gives 50% inhibition. As usually defined, the bioavailability is dose-corrected exposure relative to a reference, in per cent.

Turning to `Cn1nc(C(F)(F)F)cc1-c1cnc(N2CCc3cc(S(=O)(=O)Nc4c(F)cc(Cl)cc4F)cc(N4CCCC4=O)c32)nc1` [TP-020], in data set [1], the Ratio came out at 1000. Also, in the data set with Mus musculus [2], the Activity stood at 59%. Moreover, 30 mg/kg produced 58% inhibition in vivo with Mus musculus [3].

For the compound `CC(C)(C)C1CCN(Cc2ccc([C@H](NS(C)(=O)=O)C(F)(F)F)cc2)CC1`, the inhibition in vivo at 10 mg/kg with Mus musculus [4] was found to be 69%. Besides, in the data set on Mus musculus [5], 30 mg/kg produced 100% inhibition in vivo.

Turning to `CC(C)(C)c1cc(C(C)(C)C)nc(N2CCn3c(nnc3-c3ccc(OC(F)(F)F)cc3)C2)n1`, the Activity in the data set on Mus musculus [6] amounted to 57%; in the data set with Mus musculus [7], 51%. Further, the Ratio IC50 in the data set listed under Homo sapiens is 300. The concentration for half-maximal inhibition (IC50) in data set [8] was more than 30 µM.

In the data set with Mus musculus [9], `O=C(CCNCC1COc2ccccc2O1)N1CCc2nc(SC3CCC3)n(-c3ccccc3)c(=O)c2C1` (stereo not drawn) showed an inhibition in vivo at 30 mg/kg of 42%.

`CCC1(C)NC(=O)c2cc(S(=O)(=O)Nc3ccc(F)cc3F)cc(Cl)c2NC1=O` (stereo not drawn): the bioavailability was 69% in [10] and 74% in [11].

`O=C(CNCCCCCOc1ccc(C(F)(F)F)cc1)N1CCc2nc(SC3CCC3)n(-c3ccccc3)c(=O)c2C1` registered an inhibition in vivo at 30 mg/kg in the data set on Mus musculus [9] of 42%.
